Data taken from US20110172230A1, “UREA COMPOUND OR SALT THEREOF” (priority 2006, published 2011).
Counter-ions that a name gives are not always drawn.

Legend:
FAAH = biological target: T1, FAAH (Homo sapiens, UniProt O00519); assay: Screening for an FAAH activity-inhibiting substance with human bladder epithelial cancer-derived cell line 5637 cells (IC50); format: cell-based; conditions: FAAH activity in human bladder epithelial cancer-derived 5637 cells, 37° C., 30 minutes
T1 construct: host or cells: 5637 human bladder epithelial cancer-derived cells, not transfected
T1 sequence (O00519 1-579): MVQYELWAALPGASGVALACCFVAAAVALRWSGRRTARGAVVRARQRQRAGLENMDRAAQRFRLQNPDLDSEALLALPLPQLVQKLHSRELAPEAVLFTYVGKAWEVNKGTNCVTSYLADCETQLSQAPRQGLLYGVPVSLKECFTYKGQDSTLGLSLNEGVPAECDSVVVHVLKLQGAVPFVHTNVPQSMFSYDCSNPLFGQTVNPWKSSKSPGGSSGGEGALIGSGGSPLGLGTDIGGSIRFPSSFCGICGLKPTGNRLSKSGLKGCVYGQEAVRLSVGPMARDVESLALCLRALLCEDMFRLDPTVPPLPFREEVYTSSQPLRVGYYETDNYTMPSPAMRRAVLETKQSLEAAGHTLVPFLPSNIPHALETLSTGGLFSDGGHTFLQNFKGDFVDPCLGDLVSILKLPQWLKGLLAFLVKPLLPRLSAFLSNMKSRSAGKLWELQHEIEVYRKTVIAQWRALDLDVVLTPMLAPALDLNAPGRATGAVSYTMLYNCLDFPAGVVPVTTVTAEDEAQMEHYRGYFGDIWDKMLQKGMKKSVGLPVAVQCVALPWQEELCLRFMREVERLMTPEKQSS
Experimental: Screening for an FAAH Activity-Inhibiting Substance with a Human Bladder Epithelial Cancer-Derived Cell
(1) Screening for an FAAH Activity Inhibiting Substance
Human bladder epithelial cancer-derived cell line 5637 cells (HTB-9; ATCC) were seeded on a 48-well cell culture plate in an amount of 1×10^5 cell/well, using 10% fetal bovine serum (HyClone)-containing RPMI1640 medium (Invitrogen Corporation). After incubated at 37° C. for 12 hours or longer, the cells were washed with 400 μl/well of a buffer (Hank's Balanced Salt Solution, 20 mM Hepes-NaOH (pH 7.4)). A test substance dissolved in DMSO was added to a substrate solution (the above buffer containing 3 μCi/ml radiolabeled anandamide (Anandamide [ethanolamine 1-^3H]) and 10 μM anandamide) so as to have a concentration from 0.003 nM to 30 nM. As a control, DMSO alone was added. 100 μl/well of the substrate solution was added to the above cells, and incubated in a CO2 incubator at 37° C. for 30 minutes. Next, the cell culture plate was transferred onto ice, and the substrate solution was removed by suction; and 75 μl/well of a cytolytic solution (the above buffer containing 0.5% Triton X-100, and 10 μM of FAAH-inhibitory activity-having compound, 3′-carbamoylbiphenyl-3-yl ester (URB597; Cayman chemical; Kathuria et al., Nature Med., Vol. 9, pp. 76-81, 2003)) was added thereto, followed by stirring. The resulting cell lysate in every well was individually transferred into a 1.5 ml sample tube, to which was added 150 μl of 1:1 (ratio by volume) chloroform/methanol solution, followed by vortexing. This was centrifuged (15000 rpm, 2 minutes), whereby the decomposed product, ethanolamine (ethanolamine 1-^3H) was separated in the upper layer (water/methanol layer) and the unreacted radiolabeled anandamide was in the lower layer (chloroform layer). 25 μl of the upper layer was transferred into a 96-well organic solvent-resistant white microplate (PicoPlate-96; Perkin Elmer, Inc.), 150 μl of Microscint-20 (Perkin Elmer, Inc.) was added thereto, and this was measured with a microplate scintillation counter (TopCount™; Beckman Coulter, Inc.). As compared with the control, the substance that gave a decreased value was selected as an FAAH activity-inhibiting substance.
(2) Measurement of the IC50 Value of the FAAH Activity Inhibiting Substance
The compound dissolved in DMSO to have a concentration of 10 mM was dissolved in the substrate solution so as to have a varying concentration from 0.003 nM to 30 nM. According to the method mentioned above, the compound was analyzed for its influence on FAAH activity. As a negative control, DMSO was used. As a positive control, URB597 was added to the substrate solution to have a concentration of 10 μM. Based on the measured value of the positive control, 0%, and on the measured value of the negative control, 100%, the IC50 value of the test substance was obtained. Furthermore, Ex represents Example No. as denoted below.

[1] = tested on: cyclophosphamide (CPA)-induced urinary frequency; assay: Effect of compound on cyclophosphamide (CPA)-induced urinary frequency in a rat (effective bladder capacity); format: in vivo; conditions: CPA (100 mg/kg i.p.)-treated Wistar female rats, p.o.; for effective dose in oral administration: effective bladder capacity over 1 hour
Experimental: Effect of Compound on Cyclophosphamide (CPA)-Induced Urinary Frequency in a Rat
Compounds were tested for their bladder irritation-relieving effect, using pathologic models. It is known that systemic administration of cyclophosphamide (CPA) converts the compound into its metabolite, acrolein, and, as existing in urine, this injures the bladder mucosa. In rats, CPA administration induces bladder pain or urinary frequency accompanied by hemorrhagic cystitis, and therefore using such rats, it is possible to evaluate the potency of drug for these symptoms. In this experiment, used were 9-week-old Wistar female rats (Charles River). CPA (100 mg/kg) was intraperitoneally administered to the rats, and after 2 days, the rats were tested. A test compound was orally administered (p.o.) to the rats; and after 15 minutes, distilled water (30 ml/kg) was forcedly orally administered thereto. The rats were put in a metabolic cage, and the weight of their urine was continuously measured for 1 hour. The overall urine amount was divided by the overall urination frequency, and the effective bladder capacity was thus calculated. […] In oral administration, the effective doses of compounds of Examples 155 and 210 were 10 mg/kg and 3 mg/kg, respectively.

CN(CCC1CCCCC1)c1ccc(C(=O)N2CCN(C(=O)Nc3cccnc3)CC2)cc1 [Example 334]
IC50 (FAAH): 0.18 nM

O=C(Nc1cnccn1)N1CCN(C(=O)c2cccc(OCCC3CCCCC3)c2)CC1 [Example 210]
IC50 (FAAH): 0.16 nM | effect on effective bladder capacity / urinary frequency [1]: increased the reduced effective bladder capacity, and relieved the condition of urinary frequency | effective dose in oral administration [1]: 3 mg/kg

O=C(Nc1ncccn1)N1CCN(C(=O)c2cccc(OCCC3CCCCC3)c2)CC1 [Example 155]
IC50 (FAAH): 0.54 nM | effect on effective bladder capacity / urinary frequency [1]: increased the reduced effective bladder capacity, and relieved the condition of urinary frequency | effective dose in oral administration [1]: 10 mg/kg

COCC(=O)NC(=O)N1CCN(Cc2cccc(OCCC3CCCCC3)c2)CC1 [Example 439]
IC50 (FAAH): 0.43 nM

O=C(Nc1cnccn1)N1CCN(C(=O)c2ccnc(OCCC3CCCCC3)c2)CC1 [Example 38, 4-[2-(2-cyclohexylethoxy)isonicotinoyl]-N-pyrazin-2-ylpiperazine-1-carboxamide]
IC50 (FAAH): 0.7 nM

O=C(Nc1cccnc1)N1CCN(Cc2ccnc(OCCC3CCCCC3)c2)CC1 [Example 30, 4-{[2-(2-cyclohexylethoxy)pyridin-4-yl]methyl}-N-pyridin-3-ylpiperazine-1-carboxamide trihydrochloride]
IC50 (FAAH): 0.28 nM
